Measurements as given in ChEMBL document CHEMBL1136412, “Imidazo[4,5-c]pyridines as corticotropin releasing factor receptor ligands” (Bioorg Med Chem Lett, 2003).

What was measured:
[1] = target: T1, Corticotropin releasing factor receptor (Rattus norvegicus, UniProt P47866+P35353); experiment: In vitro binding affinity against Corticotropin releasing factor receptor in rat cortical homogenates
[2] = target: T1, Corticotropin releasing factor receptor; experiment: In vitro binding affinity against CRF receptor in rat cortical homogenates
[3] = Partition coefficient (logP); format: physicochemical; settings: octanol/water
[4] = pKa value of the compound; format: physicochemical
[5] = (§1) Half life was evaluated in dog; format: ADME, organism-based, Canis lupus familiaris; settings: in vivo
Canis familiaris [6] = species on record: Canis familiaris; experiment: as §1; format: ADME, organism-based, Canis lupus familiaris; settings: in vivo
[7] = Maximal plasma concentration at a dose of 1 mg/kg (oral); format: ADME, organism-based, Canis lupus familiaris; design: route oral, dose 1 mg/kg; settings: dog
[8] = Oral bioavailability at a dose of 1 mg/kg in dogs; format: ADME, organism-based, Canis lupus familiaris; settings: dog, in vivo
Canis familiaris [9] = experiment: Area under the curve at a dose of 1 mg/kg (oral); format: ADME, organism-based, Canis lupus familiaris; design: dose 1 mg/kg; settings: dog, in vivo
[10] = Steady state volume of distribution at a dose of 0.2 mg/kg i.v.; format: ADME, organism-based, Canis lupus familiaris; design: dose 0.2 mg/kg, route intravenous; settings: dog, in vivo, iv, read-out: Vss
[11] = Clearance value at a dose of 0.2 mg/kg i.v.; format: ADME, organism-based, Canis lupus familiaris; design: dose 0.2 mg/kg, route intravenous; settings: dog, in vivo, iv, read-out: Cls (converted)
Canis familiaris [12] = experiment: Area under the curve at i.v. dose of 0.2 mg/kg; format: ADME, organism-based, Canis lupus familiaris; design: dose 0.2 mg/kg, route intravenous; settings: dog, in vivo, iv

Row | Structure (SMILES) | Ki [1] | logP [3] | also measured
1 | CCC[C@@H](C)n1c(CC)nc2c(-c3ccc(OC(F)(F)F)cc3Cl)nccc21 | 1.9 nM |  | 
2 | CCc1nc2c(-c3ccc(OC(F)(F)F)cc3Cl)nccc2n1C(C)CC (stereo not drawn) |  |  | Ki [2]: 7.8 nM
3 | CCc1nc2c(-c3ccc(Cl)cc3C)nccc2n1C(CC)C1CC1 (stereo not drawn) | 14 nM |  | 
4 | CCCC(C)n1c(CC)nc2c(-c3ccc(OC(F)F)cc3C)nccc21 (stereo not drawn) | 9 nM |  | 
5 | CCc1nc2c(-c3ccc(C(F)(F)F)cc3Cl)nccc2n1C(CC)CC | 5.4 nM |  | 
6 | CCCC(C)n1c(CC)nc2c(-c3ccc(Cl)cc3C)nccc21 (stereo not drawn) | 9.1 nM |  | 
7 | CCc1nc2c(-c3ccc(C(F)(F)F)cc3Cl)nccc2n1C(CC)C1CC1 (stereo not drawn) | 2.9 nM |  | 
8 | CCCC(C)n1c(CC)nc2c(-c3ccc(C(F)(F)F)cc3Cl)nccc21 (stereo not drawn) | 3.5 nM |  | 
9 | CCCC(C)n1c(CC)nc2c(-c3ccc(OC(F)F)cc3Cl)ccnc21 (stereo not drawn) |  | 5.35 | 
10 | CCc1nc2c(-c3ccc(Cl)cc3Cl)ncnc2n1C(C)C1CC1 (stereo not drawn) |  | 4.33 | pKa [4]: < 3
11 | CCc1nc2c(-c3ccc(Cl)cc3C(F)(F)F)nccc2n1C(CC)C1CC1 (stereo not drawn) | 4.4 nM |  | 
12 | CCCC(C)n1c(CC)nc2c(-c3ccc(OC(F)(F)F)cc3Cl)nccc21 (stereo not drawn) | 2.8 nM | 4.62 | pKa [4]: 5.09
13 | CCc1nc2c(-c3ccc(Cl)cc3Cl)nccc2n1C(CC)C1CC1 (stereo not drawn) |  | 4.1 | 
14 | CCC[C@H](C)n1c(CC)nc2c(-c3ccc(OC(F)(F)F)cc3Cl)nccc21 | 2.3 nM |  | half-life [5]: 15.1 h; T1/2 (Canis familiaris [6]): 9.4 h; Cmax [7]: 92.4 nM; bioavailability [8]: 33%; AUC (Canis familiaris [9]): 0.569 µM·h; Vd [10]: 19.1 L/kg; clearance [11]: 23.3 mL/min/kg; AUC (Canis familiaris [12]): 0.341 µM·h
15 | CCCC(C)n1c(CC)nc2c(-c3ccc(Cl)cc3Cl)nccc21 (stereo not drawn) | 3 nM |  | 
16 | CCc1nc2c(-c3ccc(Cl)cc3Cl)ccnc2n1C(CC)C1CC1 (stereo not drawn) |  | 5.56 | pKa [4]: 3.86
